For this assay, the target named is T1, TLR4/MD-2 complex (Mus musculus, UniProt Q9QUK6).
T1 construct: protein extracts were collected 24 hrs post-treatment and immunoprecipitated with antibody to TLR4; endogenous in cells; host or cells: RAW264.7
T1 sequence (Q9QUK6 26-835): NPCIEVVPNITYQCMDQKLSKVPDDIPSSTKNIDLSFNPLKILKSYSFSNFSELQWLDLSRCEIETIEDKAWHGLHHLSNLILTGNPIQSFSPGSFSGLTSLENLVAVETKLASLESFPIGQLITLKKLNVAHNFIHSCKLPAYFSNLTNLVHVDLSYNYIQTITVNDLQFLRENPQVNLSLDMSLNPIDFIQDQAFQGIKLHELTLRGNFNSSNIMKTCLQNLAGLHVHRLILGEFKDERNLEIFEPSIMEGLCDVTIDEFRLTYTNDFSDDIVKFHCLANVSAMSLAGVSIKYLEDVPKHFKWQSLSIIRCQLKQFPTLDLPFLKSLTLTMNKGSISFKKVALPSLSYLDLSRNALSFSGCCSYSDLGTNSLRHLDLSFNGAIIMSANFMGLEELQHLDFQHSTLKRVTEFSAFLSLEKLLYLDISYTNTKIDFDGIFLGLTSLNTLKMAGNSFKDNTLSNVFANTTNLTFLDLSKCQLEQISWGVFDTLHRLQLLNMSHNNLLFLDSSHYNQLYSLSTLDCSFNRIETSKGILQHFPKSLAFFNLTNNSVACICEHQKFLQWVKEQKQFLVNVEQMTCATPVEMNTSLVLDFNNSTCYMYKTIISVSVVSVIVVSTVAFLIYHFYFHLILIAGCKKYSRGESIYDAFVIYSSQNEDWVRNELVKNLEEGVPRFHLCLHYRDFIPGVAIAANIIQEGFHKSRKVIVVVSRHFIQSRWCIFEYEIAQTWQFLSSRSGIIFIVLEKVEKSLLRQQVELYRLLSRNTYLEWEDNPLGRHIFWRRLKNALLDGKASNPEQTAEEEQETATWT
In words: TLR4/MD-2 co-immunoprecipitation in LPS-treated RAW264.7 cells. Particulars: 1.0 μM; LPS 1 μg/ml; 24 hrs post-treatment. It counts as cell-based. The procedure:
Co-Immunoprecipitation Assay RAW264.7 cells [treated with LPS (1 μg/ml), 3α,5α-THP (1 μM) or pregnenolone (1 μM)] were exposed to chemical protein crosslinking (Poulopoulos et al, 2009) at 24 hrs post-treatment. Briefly, the cells were incubated (20 min on ice) with 1 mM of the cleavable, membrane-permeable crosslinker DSP (Thermo Fisher Scientific, Cat. #PG82081). Rat VTA homogenates were incubated (20 min on ice) with 200 μM of DSP. The crosslinker was quenched in 1 M Tris buffer (pH 7.5) (to a final concentration of 10-20 mM), and the material was centrifuged at 21,000×g for 15 min. Proteins from the cells were extracted with Pierce IP Lysis Buffer (Thermo Fisher Scientific, Cat. #87787) supplemented with protease and phosphatase inhibitor cocktails (Sigma). Proteins from the VTA were extracted with CelLytic MT (dialyzable mild detergent, bicine and 150 mM NaCl; Sigma Aldrich, St. Louis, Mo., USA, Cat. #C3228) supplemented with protease and phosphatase inhibitor cocktails (Sigma) according to the manufacturers instructions. […]

SMILES strings stand for the structures.

With `CC(=O)[C@H]1CC[C@H]2[C@@H]3CC[C@H]4C[C@H](O)CC[C@]4(C)[C@H]3CC[C@]12C` [3α,5α-THP, (3α,5α)3-hydroxypregnan-20-one], the “reduction of MD-2 co-precipitated with TLR4” value was determined as 45.4±6.9%.

Consider `CC(=O)[C@H]1CC[C@H]2[C@@H]3CC=C4C[C@@H](O)CC[C@]4(C)[C@H]3CC[C@]12C` [pregnenolone], for which the “reduction of MD-2 co-precipitated with TLR4” value is 57.2±7.3%.

Values taken from patent US20210205329A1 (The University of North Carolina at Chapel Hill, priority 2018, published 2021).
